Experimental data reported in publication PMC6274376, “Naturally Inspired Molecules as Multifunctional Agents for Alzheimer’s Disease Treatment” (Molecules, 2016).
Where “and” joins values, the source holds several entries; their conditions need not be identical. Equal values may be shown once.

Experiments:
[1] = Cu(II) chelating assay (bathocuproinedisulfonic acid disodium salt, BCS); type: physicochemical
Description: Data were expressed as chelating activity percentage (Table 2).
The Cu(II) chelating activity of the compounds was determined using the bathocuproinedisulfonic acid disodium salt (BCS) assay as previously described. Briefly, 50 μL of a 0.25 mM CuSO4 solution were mixed for 2 min with 50 μL of 5–20 µM compound solution in 100 µL of HEPES buffer (15 mM). Hydroxylamine (1 mM) was added after 2 min in order to reduce non-chelated cupric ions into cuprous ones. Finally, 50 μL of BCS (5 mM) or water (blank) was added and the absorbance at 490 nm was measured by spectrophotometry using a multilabel plate reader (VICTOR™ X3, PerkinElmer, Waltham, MA, USA) immediately and at 5 min. Na2EDTA (5–20 µM) was used as a positive control. The ability of the test compounds to chelate cupric ions was calculated using the following equation: chelating activity (%) = [1 − (Abs BCS + compound/Abs BCS) × 100].

[2] = UV-vis spectrophotometric evaluation of Cu(II) ion complexation; type: physicochemical
Description: Chalcone conjugates 4 and 5 were investigated to evaluate their ability to complex Cu(II) ions via a UV-vis spectrophotometric study.
Therefore, we decided to carry on the spectrophotometric measurements in a mixed solvent: aqueous MOPS aqueous buffer […] pH 7.4 /DMF in 1:4 ratio, respectively. Flavonoids bearing the 4-carbonyl-5-hydroxyl chelation site have characteristic UV-vis spectra, characterized by a wide and non-structured band centred around 370–380 nm, with a molar extinction coefficient of 50,000 cm^−1·M^−1 that is attributed to HOMO-LUMO transition with a π-π* character.
All reagents and solvents were used as received (from Aldrich, St. Louis, MO, USA) without further purification: copper(II) sulphate hydrate (≥98%), 3-(N-Morpholino)propanesulfonic acid (MOPS, ≥99.5%), sodium hydroxide (≥98%), N,N-dimethylformamide (spectroscopic grade, DMF). A Milli-Q system (Millipore, Billerica, MA, USA) was used for the purification of water (resistivity ≥18.2 MΩ). MOPS bufferstock solution were obtained by a dissolution in Milli-Q water of 3-(N-morpholino)propane sulphonic acid to a final concentration of 10^−3 M. The pH was corrected with a solution of sodium hydroxide 1 N to a value of pH 7.4. Absorption spectra were recorded on a Perkin-Elmer Lambda 45 spectrophotometer at room temperature. Spectrophotometric titrations were performed as follows: stock solutions of ligands (ca. 10^−3 M) were prepared in DMF, diluted down to the desired concentration, in the quartz cuvette, in MOPS buffer 10^−3 M pH 7.4/DMF (1:4) to a final volume of 2.5 mL and then titrated by adding increasing amounts of Cu(II) (3.04 × 10^−3 Min DMF).

SH-SY5Y cells = assay: Inhibition of Cu(II)-mediated intracellular ROS formation (H2DCF-DA probe); type: cell-based, human; details: 5 and 10 µM compound, H2O2 (100 µM)/CuSO4 (25 µM), 30 min
Description: Our attention was then focused on the study of the intracellular antioxidant effect mediated by Cu(II) chelation. Therefore, compound 5 was selected to be studied in SH-SH5Y cells for its ability to counteract ROS formation elicited by Fenton reaction with CuSO4 (25 µM) and H2O2 (100 µM), and using 2′,7′-dichlorodihydrofluorescein diacetate (H2DCF-DA) as the fluorescent probe.
The intracellular antioxidant activity of the compounds was evaluated in SH-SY5Y cells as previously described with minor changes. Briefly, the SH-SY5Y cells were seeded in 96-well plates at 3 × 10^4 cells/well and incubated for 24 h at 37 °C in 5% CO2. […] The ROS formation was measured (excitation at 485 nm and emission at 535 nm) using a multilabel plate reader (VICTOR™ X3). The values are expressed as arbitrary fluorescence units (AUF).
Figure 2 Effect of compound 5 on ROS formation elicited by H2O2/CuSO4 in SH-SY5Y cells. […] At the end of the incubation, intracellular ROS formation was determined using a fluorescence probe, as described in the Materials and Methods section. The arbitrary units of fluorescence (AUF) values are shown as mean ± SD of at least three independent experiments (^### P < 0.001 versus untreated cells, *** P < 0.001 versus cells treated with H2O2/CuSO4, at ANOVA with Bonferroni’s Post Hoc Test).

hBACE-1 = hBACE-1 (Homo sapiens, UniProt P56817); assay: BACE-1 FRET inhibition assay; type: biochemical; details: FRET assay; average of multiple experiments each in triplicate, ± SEM
Description: The new benzophenone-based hybrids 3–7 presented in this study were first evaluated for their in vitro ability to inhibit the enzymatic activity of BACE-1, by means of a biochemical assay performed using the fluorescence resonance energy transfer (FRET) methodology and in comparison to inhibitor IV [22] as reference compound (Table 1). For the most interesting compounds 3–5, endowed with the orto-hydroxycarbonyl substitution pattern, the neuroprotective potential was determined as lack of toxic effects on neuronal cell viability and as Cu(II) chelating activity (Table 2); moreover, their direct interactions with Cu(II) ion were confirmed by a UV-vis spectrophotometric study.
Inhibition studies were performed using the following procedure: 5 μL of test compound (or DMSO) were pre-incubated with 175 μL of enzyme (10.37 nM, final concentration) in 20 mM NaOAc pH 4.5 containing CHAPS (0.1% w/v) for 1 h at r.t.; M-2420 (3 μM, final concentration) was then added and left to react for 15 min. The fluorescence signal was read at λem = 405 nm (λexc = 320 nm). DMSO concentration in the final mixture was maintained below 5% (v/v) to guarantee no significant loss of enzyme activity.Fluorescence intensities with and without inhibitor were compared and the percent inhibition due to the presence of test compounds was calculated. The background signal was measured in control wells containing all the reagents, except theenzymeand subtracted. The % inhibition due to the presence of increasing test compound concentration was calculated by the following expression: 100 − (IFi/IFo × 100) where IFi and IFo are the fluorescence intensities obtained for the enzyme in the presence and in the absence of inhibitor, respectively. Inhibition curves were obtained for each compound by plotting the % inhibition versus the logarithm of inhibitor concentration in the assay sample. The linear regression parameters were determined and the IC50 extrapolated (GraphPad Prism 4.0, GraphPad Software Inc., San Diego, CA, USA).

Chain of hBACE-1 (P56817 46-501): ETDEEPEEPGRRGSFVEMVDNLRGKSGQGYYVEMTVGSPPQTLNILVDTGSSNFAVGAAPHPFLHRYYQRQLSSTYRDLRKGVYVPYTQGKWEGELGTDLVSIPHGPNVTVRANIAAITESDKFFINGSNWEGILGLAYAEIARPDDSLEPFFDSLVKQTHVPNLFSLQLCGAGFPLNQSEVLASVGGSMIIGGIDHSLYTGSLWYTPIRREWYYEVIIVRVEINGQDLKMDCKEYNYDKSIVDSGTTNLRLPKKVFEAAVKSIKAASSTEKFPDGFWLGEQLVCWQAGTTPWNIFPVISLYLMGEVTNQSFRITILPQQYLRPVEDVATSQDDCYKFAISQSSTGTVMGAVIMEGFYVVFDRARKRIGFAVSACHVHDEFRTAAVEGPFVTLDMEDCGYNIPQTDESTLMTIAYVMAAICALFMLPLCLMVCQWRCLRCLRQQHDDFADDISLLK

IC50 (hBACE-1): 4.02 ± 0.29 µM
Compound: CN(Cc1ccccc1)Cc1ccc(C(=O)c2ccc(OCCOc3ccc(C(=O)/C=C/c4cccc5ccccc45)c(O)c3)cc2)cc1 [Compound 5, E-1-{4-[2-(4-4-Benzylmethylaminomethylbenzoylphenoxy)ethoxy]-2-hydroxyphenyl}-3-(naphthalen-1-yl)-prop-2-en-1-one]
Cu(II)-Chelating Activity ([1]; 5 µM compound, fixed 40 µM CuSO4): 9.48%
Cu(II)-Chelating Activity ([1]; 10 µM compound, fixed 40 µM CuSO4): 13.78%
Cu(II)-Chelating Activity ([1]; 20 µM compound, fixed 40 µM CuSO4, mean ± SD): 19.73% and 19.73 ± 0.30%
ability to complex Cu(II) ions ([2]; UV-vis spectra, MOPS buffer pH 7.4/DMF 1:4): able to chelate the selected ion
association constant (order of magnitude) ([2]; estimated from titration data, 1:1 complex stoichiometry with Cu(II), MOPS pH 7.4/DMF 1:4): ~10^4
ROS formation evoked by H2O2/CuSO4 (arbitrary fluorescence units) (SH-SY5Y cells): significantly decreased
